Source: US20040110847A1, “Compounds extracted from Sap of Rhus succedanea” (priority 2002, published 2004)
In brackets after ≈: the same amount, converted by molar mass.

Experiments:
Huh7 cells = test: Cytotoxicity, acid phosphatase assay, Huh7; format: cell-based, Human; conditions: 72 h; concentration of 50% growth inhibition
Procedure: (§1) (5). Determination of Cytotoxicity. Four human cancer cell lines, HeLa, Huh7, HCT116 and LoVo were used to assess cytotoxicity of the purified compounds. All the cell lines, except Huh7 cells,^14 were purchased from American Type Culture Collection. The cells were cultured in Dulbecco's modified Eagle medium (DMEM) supplemented with 10% fetal calf serum (FCS), 100 units/ml penicillin and […] streptomycin at 37° C. under 5% CO2. Cells were grown in a 96 well plate (2000 cells/well) with or without the addition of compounds 1, 2 or 3 for 72 h. An acid phosphatase assay^14,15 was then used to quantitate the viable cells. Briefly, after the media were aspirated, the cells were washed with phosphate buffer saline (PBS) and then incubated with 100 μl of 0.1M sodium acetate buffer containing 10 mM p-nitrophenyl phosphate and 0.1% Triton X-100, and incubated at 37° C. for 1 h. The reaction was stopped by the addition of 10 μl of 1 N NaOH and coloration of the cells was measured at 410 nm by an ELISA reader. The concentrations of 50% growth inhibition (IC50) were interpolated from dose-dependent growth inhibition curves. The data HeLa, Huh7, HCT116 and LoVo presented were the averages derived from a minimum of triplicate independent experiments.

Lovo cells = test: Cytotoxicity, acid phosphatase assay, LoVo; format: cell-based, Human; conditions: 72 h; concentration of 50% growth inhibition
Procedure: as §1

[1] = Antioxidative potency (AOP), iron/ascorbate system with linoleic acid as substrate; format: biochemical; conditions: compared with BHT; FIG. 2; ca. 1, 4, 10 ppm; 37° C., 5 and 30 min
Procedure: (4). Determination of Antioxidative Activity: The procedure using an iron/ascorbate system reported by Yoon,^9 Chiou,^10 Decker,^11 Tamura,^12 and Sasaki^13 was modified. In a beaker (50 ml), 100 mg of linoleic acid, 1.0 g of Tween 20, and 20 ml of Tris-buffer (pH 7.4, 50 mM) were combined, gently shaken and emulsified with a sonicator for 2 min. An iron/ascorbate solution containing 30 μM FeCl3 and 200 μM ascorbic acid in the Tris-buffer (pH 7.4, 50 mM) was prepared daily. In a series of 1.5-ml microfuge tubes, 0.5 ml of the emulsified linoleic acid, 0.5 ml of the iron/ascorbate solution, and 0.1 ml of methanol containing various concentrations of the three compounds or BHT including 0, 10, 40 and 100 ppm (μg/ml) (resulting in ca. 0, 1, 4 and 10 ppm of concentration after combination) were deposited. Prior to incubation, the tubes were immersed and kept in an ice bath to minimize any reactions. To initiate reaction, the mixtures in the tubes were mixed by hand (gently to prevent foaming) and placed into the wells of a thermal block at 37° C. for 5 and 30 min. After incubation, the produced conjugated diene hydroperoxide (CDHP) contents were determined spectrophotometrically. […] The absorbance (A) at 234 nm of the mixture was measured. […] The percentage of AOP (capacity to inhibit peroxide formation in linoleic acid) was calculated as follows. […]

HCT116 cells = test: Cytotoxicity, acid phosphatase assay, HCT116; format: cell-based, Human; conditions: 72 h; concentration of 50% growth inhibition
Procedure: as §1

Hela cells = test: Cytotoxicity, acid phosphatase assay, HeLa; format: cell-based, Human; conditions: 72 h; concentration of 50% growth inhibition
Procedure: as §1

[2] = test system: four human cancer cell lines (HeLa, Huh7, HCT116, LoVo); test: Cytotoxicity evaluation across four human cancer cell lines; format: cell-based
Procedure: as §1

SMILES | IC50 Huh7 cells (Huh7 cells) [µg/mL] | IC50 Lovo cells (Lovo cells) [µg/mL] | antioxidative potency (AOP) [1] | IC50 HCT116 cells (HCT116 cells) [µg/mL] | IC50 Hela cells (Hela cells) [µg/mL] | cytotoxic activity against four human cancer cell lines [2]
C/C=C/C=C/C/C=C\CCCCCCCCCc1cc(O)ccc1O [Compound 1, 10′(Z),13′(E),15′(E)-heptadecatrienylhydroquinone] | 3.9 (≈ 11.4 µM) | 4.5 (≈ 13.1 µM) | close to that of BHT | 2.0 (≈ 5.84 µM) | 2.8 (≈ 8.17 µM) | significant cytotoxic activity
CCC/C=C/C/C=C\CCCCCCCCCc1cc(O)ccc1O [Compound 2, 10′(Z),13′(E)-heptadecadienylhydroquinone] | 6.0 (≈ 17.4 µM) | 5.6 (≈ 16.3 µM) | close to that of BHT | 3.5 (≈ 10.2 µM) | 4.6 (≈ 13.4 µM) | significant cytotoxic activity
